Key:
[1] = Biological activity after removal of moieties of lipid X
[2] = tested on: macrophage protein kinase C; conditions: cited from earlier work
[3] = Storage stability of lipid X stock solutions; format: physicochemical; conditions: stock solutions 5-10 mg/ml stored frozen at -20° C.
Procedure: (§1) Preparation of E. coli lipid X. The 2,3-diacylglucosamine 1-phosphate (E. coli lipid X) was isolated from E. coli strain MN7 (ATCC #39328) as described previously (9). Lipid X obtained in this manner is a solid white powder. Stock solutions (1-10 mg/ml) are usually prepared in aqueous 1 mM EDTA titrated to pH 8 with Tris-free base. Other monovalent counter ions, such as (NH4)^+, Na^+, K^+, etc., may also be used, but divalent cations such as Mg^++ and Ca^++ cause the lipid to precipitate. […] In experiments involving the use of mice, solid lipid X was first dissolved in 0.9% saline (instead of water) and titrated with Tris-free base to pH 8 in the same manner.

[4] = Solution behaviour of lipid X; format: physicochemical
Procedure: as §1

macrophages = conditions: cited from earlier work
[5] = tested on: experimental tumors in guinea pigs; conditions: cited from earlier work
sheep [6] = assay: Protection of sheep by lipid X against lethal effects of intravenous lipopolysaccharide; format: in vivo
Procedure: Preparation of E. coli lipid X. The 2,3-diacylglucosamine 1-phosphate (E. coli lipid X) was isolated from E. coli strain MN7 (ATCC #39328) as described previously (9). […] Stock solutions (1-10 mg/ml) are usually prepared in aqueous 1 mM EDTA titrated to pH 8 with Tris-free base. […] In experiments involving the use of mice, solid lipid X was first dissolved in 0.9% saline (instead of water) and titrated with Tris-free base to pH 8 in the same manner.
(§2) Stock solutions of 5 mg/ml were prepared in sterile 0.9% saline.
(§3) Experimental Animals. Eight week old mice (strain C57BL/10) were purchased from Jackson Laboratories, Bar Harbor, ME. Mixed bred sheep weighing 30-70 kg were obtained from the University of Wisconsin Experimental Farms. Sheep were prepared as follows: at least 24 hours before each experiment catheters were percutaneously placed in the pulmonary artery. Any other catheterizations that were required for infusion were done at this time. All studies were performed on awake, unrestrained sheep placed in portable stanchions with food and water ad libitum. Electronically calculated pulmonary artery pressures as well as heart rates were recorded at various intervals on a Gilson polygraph (Gilson Instruments, Middleton, WI). To ensure a stable baseline prior to the injection of test compounds, approximately 1 hour of baseline measurements were recorded.

B cell = conditions: cited from earlier work
sheep [7] = conditions: cited from earlier work
C57BL/10 mice [8] = assay: Protection of mice by lipid X against lethal endotoxemia; format: in vivo, mouse
Procedure: FIG. 4. […] Controls receiving no lipid X are shown at the left of each panel. The number of mice per group is either three or four, and is the sum of the dead and the living. The number of survivors is shown at the top of the panel. Each point represents the death of one mouse. When all individuals died the mean time of death is shown as a horizontal bar. […] Doses of lipid X were administered in 0.1 ml of physiological saline that had been titrated to pH 8 with Tris to dissolve the lipid.
as §3
Mice were allowed to rest for at least 7 days following their arrival and were sexually segregated and housed at 5 per cage with food and water ad libitum. […] No more than 0.1 ml of fluid was injected at a time. Just prior to injection, the mice were lightly anesthetized with ether. Following the injection, mice were observed every 0.5-6 hours and the time of death was recorded.
The lethal dose of E. coli endotoxin was determined both for the intravenous and of the intraperitoneal challenge.
Mice were given 750 μg of lipid X from 24 hours prior to 6 hours after endotoxin challenge with 1-2 LD100 doses.

sheep [9] = assay: Hemodynamic response and toxicity of lipid X in sheep; format: in vivo; conditions: 40 sheep injected with lipid X
Procedure: The hemodynamic response of sheep to lipid X has been studied (18). Essentially, the conclusions are that: 1) lipid X (40 μg/kg cumulative dose) causes a transient (3-5 min) increase in pulmonary arterial pressure, that may be attributed to prostaglandin release, or stimulated synthesis. […] The only significant symptoms observed after injection of lipid X alone are transient lethargy and shortness of breath (15-30 min), without significant distress or obvious adverse long-term consequences.
A period of transient pulmonary hypertension and slight short ness of breath subsides after 30 minutes. About 30 sheep were examined by Burhop with regard to lipid X toxicity.

C57BL/10 mice [10] = assay: Toxicity of lipid X in mice; format: in vivo, mouse
Procedure: To test for the toxicity of lipid X in mice, C57BL/10 mice were challenged with 750, 2000 or 5000 μg of lipid X intraperitoneally (12 mice) or with 750, 1500 or 3000 μg intravenously (7 mice).

[11] = previous work; dependent on being given prior to or very shortly after LPS challenge; cited from earlier work
sheep [12] = assay: Lethality and clinical toxicity of intravenous lipopolysaccharide in sheep; conditions: usually the result of disseminated intravascular coagulopathy
Procedure: as §2, §3

[13] = sheep, pretreatment with lipid X
[14] = lipid X by itself 40-1000 μg/kg

## CCCCCCCCCCCC(O)CC(=O)N[C@H]1[C@@H](OP(=O)(O)O)O[C@H](CO)[C@@H](O)[C@@H]1O (stereo partly drawn) [N-monoacyl glucosamine 1-phosphate]
[1]; mild alkali treatment of lipid X
  biological activity after removal of the ester linked β-hydroxymyristoyl moiety: biologically inert

## CCCCCCCCCCCC(O)CC(=O)N[C@H]1C(O)O[C@H](CO)[C@@H](O)[C@@H]1OC(=O)CC(O)CCCCCCCCCCC (stereo partly drawn) [dephospho-X]
[1]; mild acid treatment of lipid X, may be due to inherent solubility of dephospho-X
  biological activity after removal of the phosphate moiety: reduces biological activity

## CCCCCCCCCCCC(O)CC(=O)N[C@H]1[C@@H](OP(=O)(O)O)O[C@H](CO)[C@@H](O)[C@@H]1OC(=O)CC(O)CCCCCCCCCCC (stereo partly drawn) [lipid X, 2,3-diacylglucosamine 1-phosphate]
[2]
  activation of macrophage protein kinase C: can activate macrophage protein kinase C
[3]
  storage stability: many months without evidence of significant deterioration
[4]; Mg^++ and Ca^++
  behaviour with divalent cations: precipitate
[4]; pH 8, stock solutions 1-10 mg/ml
  solution behaviour in Tris-EDTA: forms a clear viscous solution
[4]; water
  solubility in water: limited solubility
macrophages
  macrophage activation with release of prostaglandin E2: capable of activating macrophages with release of protaglandin E2
[5]
  regression of experimental tumors: capable of inducing regression of experimental tumors in guinea pigs
Sheep [6]; lipid X 50 μg/kg 1 hour prior to endotoxin, lipopolysaccharide 20 μg/kg
  Survivors: 1/2
Sheep [6]; lipid X 100 μg/kg 15 min. prior to endotoxin, lipopolysaccharide 10 μg/kg
  Survivors: 3/3
Sheep [6]; lipid X 100 μg/kg 1 hour prior to endotoxin, lipopolysaccharide 20 μg/kg
  Survivors: 4/4
Sheep [6]; lipid X 200 μg/kg 1 hour prior to endotoxin, lipopolysaccharide 20 μg/kg
  Survivors: 3/3
Sheep [6]; sheep receiving 100-200 μg/kg lipid X during the pretreatment period
  survival of subsequent LPS challenge: all the sheep receiving 100-200 μg/kg of lipid X during the pretreatment period survived
Sheep [6]; sheep, on a weight basis
  excess of lipid X over LPS required to ensure survival: 5-10 fold
Sheep [6]; [13]
  effect on pulmonary hypertension or fever induced by LPS: does not prevent pulmonary hypertension or fever
  effect on serious clinical symptoms (shortness of breath, weakness, diarrhea, etc.): alleviates some of the serious clinical symptoms
  resistance to the lethal effects of gram-negative endotoxin: immediately resistant to the lethal effects
B cell
  B cell mitogen: B cell mitogen
Sheep [7]; lipid X 40 μg/kg cumulative dose
  duration of transient increase in pulmonary arterial pressure: 3 to 5 min
Sheep [7]; lipid X 500-1000 μg/kg intravenously
  duration of pulmonary hypertension: 5 to 10 min
Sheep [7]; lipid X alone
  duration of transient lethargy and shortness of breath: 15 to 30 min
Sheep [7]; [14]
  marked illness or fever: does not create marked illness or fever
  time for transient pulmonary hypertension and slight shortness of breath to subside: 30 min
Sheep [7]; lipid X, compared to endotoxin
  increased permeability of the pulmonary circulation: to a very mild degree compared to endotoxin
Sheep [7]; lipid X
  delay between injection and increase of pulmonary arterial pressure: no delay
  life-threatening pulmonary edema: does not develop
Sheep [7]; very high doses of lipid X
  terminal endotoxemia: fails to cause terminal endotoxemia
C57BL/10 mice [8]; 750 μg lipid X intravenously, 250 or 500 μg endotoxin intravenously
  last death after challenge: ≤ 5 days
C57BL/10 mice [8]; both challenge doses, versus the group on either side
  mortality of group receiving lipid X shortly after endotoxin challenge: higher mortality than the group on either side
C57BL/10 mice [8]; compared with classical tolerance, which does not appear for many days
  onset and duration of protection against lipopolysaccharide: immediate and wears off after several hours
C57BL/10 mice [8]; lipid X (750 μg intravenously) from 1 hour prior to through 4 hours post LPS challenge, 250 μg endotoxin
  survival of mice: 81%
C57BL/10 mice [8]; lipid X from 6 hours prior to endotoxin challenge through 1 hour after LPS challenge, intravenous, printed 500 μg lipid X
  survival of mice: Forty-one
C57BL/10 mice [8]; lipid X intraperitoneally 2 hours before 1500 μg endotoxin (3 times LD100) intraperitoneally, data not shown
  prolongation of time to death: four
C57BL/10 mice [8]; lipid X intraperitoneally 2 hours before 1500 μg endotoxin, about 20 hours without lipid X, data not shown
  time to death: ~80 h
C57BL/10 mice [8]; mice, pretreatment with lipid X
  resistance to the lethal effects of gram-negative endotoxin: immediately resistant to the lethal effects
C57BL/10 mice [8]; mouse, lipid X given 4 hours after lipopolysaccharide
  prevention of lethal endotoxicity when given after lipopolysaccharide: appears to prevent lethal endotoxicity even when given 4 hours after lipopolysaccharide
Sheep [9]
  adverse complications of lipid X administration: no serious adverse complications
C57BL/10 mice [10]; 750, 2000 or 5000 μg intraperitoneally (12 mice) or 750, 1500 or 3000 μg intravenously (7 mice)
  survival after lipid X challenge: All these mice lived
C57BL/10 mice [10]; mice
  toxicity of lipid X: nontoxic in mice

## C=CCN1CC[C@]23c4c5ccc(O)c4O[C@H]2C(=O)CC[C@@]3(O)[C@H]1C5 [naloxone]
[11]
  prevention of the complications of lipopolysaccharide injection: limited prevention of the complications

## lipid A
Sheep [12]
  time of death after injection (occasional): 1-2 weeks

— patent US4918061A, “Method of preventing diseases caused by gram-negative endotoxin in mammals” (priority 1988, dated 1990)
